A short description of series [1]: Azoxystrobin dissolved in organic liquid, diluted with 20 volumes of water, visual assessment of layers or crystals. It is filed as physicochemical. Particulars: water 20 times the solvent volume, assessed visually at 48 hours. As to the method: Azoxystrobin was dissolved in a range of organic liquids, some of which are known to be solvents for agrochemicals, at room temperature and allowed to equilibrate. A measured quantity of water was added and each mixture was shaken. The volume of water was 20 times greater than the volume of organic liquid/solvent. After settling the samples were assessed as being either (i) split into two layers with no evidence of pesticide crystalisation, or (ii) identified as a single layer where the pesticide had precipitated out as crystals.
Samples were assessed after 24 and 48 hours. The log P octanol values for the solvents have been taken from the literature or, where this value was not available, were estimated using the program ProPred™ (ICAS ProPred™, KT Consortium, DTU Kemiteknik, Lyngby, Denmark). Where values were estimated, a simple check was carried out using measuring cylinders with 50/50 volumes of octanol and water. Solvent was added to the cylinder until a clear observation of the effect of the addition was apparent.

The conditions of series [2]: solvents of Table 2/3; literature, or estimated with ProPred where not available; cited from earlier work.
The nature of series [3]: Azoxystrobin dissolved in organic liquid, diluted with 20 volumes of water, visual assessment of layers or crystals. It is filed as physicochemical.
The nature of series [4]: 5% w/w solutions of agrochemicals in solvent diluted into water 20:1, appearance. It is filed as physicochemical. The conditions noted are these: for APPEARANCE OF FORMULATION, Difenoconazole: 5% w/w difenoconazole in solvent; for APPEARANCE OF FORMULATION, Difenoconazole / APPEARANCE OF FORMULATION, Fludioxonil / APPEARANCE OF FORMULATION, Mandipropamid / APPEARANCE OF FORMULATION, Pinoxaden: diluted into water 20:1; for APPEARANCE OF FORMULATION, Fludioxonil: 5% w/w fludioxonil in solvent; for APPEARANCE OF FORMULATION, Mandipropamid: 5% w/w mandipropamid in solvent; for APPEARANCE OF FORMULATION, Pinoxaden: 5% w/w pinoxaden in solvent; for appearance with each of the agrochemical active ingredients: mandipropamid, fludioxonil, pinoxaden, difenoconazole, 5% w/w, diluted 20:1. As to the method: In this example several pesticidally active agrochemical ingredients (mandipropamid, fludioxonil, pinoxaden, and difenoconazole) were dissolved in each of the three solvents to give solutions of 5% w/w. Each solution was then diluted into water to form a 20:1 mixture.

Series [5] can be described thus: Aqueous solubility of gamma caprolactone by HPLC. It is filed as physicochemical. The conditions noted are these: calculated mean of a set of six measurements. The method, then: The aqueous solubility of gamma caprolactone was measured using HPLC chromatography. Several samples of the lactone were equilibrated at room temperature with an equal volume of water. The samples were left for two weeks then analysed by HPLC.

Series [6] is described as follows: log P octanol by octanol saturated chromatography column. It is filed as physicochemical. Particulars: octanol/water (octanol saturated chromatography column); 25° C., pH 6.98; read-out: octanol water partition coefficient (log P octanol). From the text: Samples of gamma caprolactone were examined using an octanol saturated chromatography column.
The conditions of series [7]: 20° C.; cited from earlier work.

Values joined by “and” are separate entries in the source; they are usually repeats but may differ in a detail not shown here. Equal entries are not always repeated. Structures can show the parent of a compound that is named as a salt. Where two headings read alike, the source gives them in different places.

Consider 25 compounds from US20200205401A1, “LACTONES AS SOLVENTS IN AGROCHEMICAL FORMULATIONS” (priority 2017, published 2020).

In the case of `CC(=O)c1ccccc1` [Acetophenone], the “APPEARANCE (azoxystrobin solution in solvent after addition of water)” value in series [1] is on record as 2 layer. Still for that read-out and setting: next, `OCc1ccccc1` [Benzyl alcohol]: 2 layer. The same measure, in the same setting: next, `CCCCOC(=O)c1ccccc1` [Butyl benzoate]: 2 layer.

`OC1CCCCC1` [Cyclohexanol]: in series [1], the “APPEARANCE (azoxystrobin solution in solvent after addition of water)” value was determined as 2 layer.

As to `CCOC(=O)/C=C/C(=O)OCC` [Diethyl fumarate], the “APPEARANCE (azoxystrobin solution in solvent after addition of water)” value in series [1] was 2 layer. Turning to `CCCCCCOCCOCCO` [Diethylene glycol hexyl ether], in series [2], the logP octanol is listed as 2.16. Further, the “APPEARANCE (azoxystrobin solution in solvent after addition of water)” value in series [1] is given as 2 layer. Turning to `CC(O)C(=O)N(C)C` (stereo not drawn) [Dimethyl lactamide], the logP octanol in series [2] is on record as −0.22. Besides, the “APPEARANCE (azoxystrobin solution in solvent after addition of water)” value in series [1] is “Crystallised”.

As for `COC(C)COC(C)CO` (stereo not drawn) [Dipropylene glycol monomethyl ether], in series [1], the “APPEARANCE (azoxystrobin solution in solvent after addition of water)” value was “Crystallised”.

Turning to `OCCO` [Ethylene glycol], the “APPEARANCE (azoxystrobin solution in solvent after addition of water)” value in series [3] is on record as “Crystallised”. With `COC(=O)c1ccccc1` [Methyl benzoate], in series [2], the logP octanol is 1.85. The “APPEARANCE (azoxystrobin solution in solvent after addition of water)” value in series [1] was 2 layer. On to `COC(=O)C(C)O` (stereo not drawn) [Methyl lactate], for which the “APPEARANCE (azoxystrobin solution in solvent after addition of water)” value in series [1] was “Crystallised”. The same measure, in the same setting: the value for `CCCOC(=O)c1ccccc1` [Propyl benzoate] was 2 layer; that for `CCCOC(=O)C(C)O` (stereo not drawn) [Propyl lactate] was 2 layer.

`CC(=O)OCC(C)OC(C)=O` (stereo not drawn) [Propylene glycol diacetate]: the logP octanol in series [2] is on record as 0.94. Also, the “APPEARANCE (azoxystrobin solution in solvent after addition of water)” value in series [1] is listed as “Crystallised”. For `CCCCOCC(C)O` (stereo not drawn) [Propylene glycol n-butyl ether], the “APPEARANCE (azoxystrobin solution in solvent after addition of water)” value in series [1] was determined as 2 layer.

As for `CC(=O)OCC(COC(C)=O)OC(C)=O` [Triacetin], in series [1], the “APPEARANCE (azoxystrobin solution in solvent after addition of water)” value was found to be 2 layer. With `CCOP(=O)(OCC)OCC` [Triethyl phosphate], the logP octanol in series [2] is 0.28. Besides, the “APPEARANCE (azoxystrobin solution in solvent after addition of water)” value in series [1] is reported as “Crystallised”. Take `O=C1CCCO1` [γ-Butyrolactone]: the logP octanol in series [2] is given as −0.60. The “APPEARANCE (azoxystrobin solution in solvent after addition of water)” value in series [1] is “Crystallised”. Regarding `CCC1CCC(=O)O1` (stereo not drawn) [γ-Caprolactone, 5-ethyltetrahydrofuran-2-one], in series [4], the “APPEARANCE OF FORMULATION, Difenoconazole” value was 2 layers; the “APPEARANCE OF FORMULATION, Fludioxonil” value stood at 2 layers; the “APPEARANCE OF FORMULATION, Mandipropamid” value was 2 layer; the “APPEARANCE OF FORMULATION, Pinoxaden” value came to 2 layers. Moreover, the “appearance with each of the agrochemical active ingredients” value in series [4] is on record as “two-layer system”. Further, the “Aqueous solubility, Mean” value in series [5] was 10.93 % w/w and 11.01 % w/w. For the same compound, the chromatographic logP in series [6] stood at 0.34. In addition, in series [3], the “appearance after further 100-fold dilution in water” value is “two layers still did not become miscible”. `CC1CCC(=O)O1` (stereo not drawn) [γ-Valerolactone]: in series [2], the logP octanol is 0.21. Besides, the “APPEARANCE (azoxystrobin solution in solvent after addition of water)” value in series [1] was “Crystallised”.

`O=C1CCCCO1` [δ-Valerolactone]: in series [2], the logP octanol was −0.26. In series [1], the “APPEARANCE (azoxystrobin solution in solvent after addition of water)” value is recorded as “Crystallised”. For the compound `O=C1CCCCCO1` [ε-Caprolactone], the logP octanol in series [2] is given as 0.70. Also, the “APPEARANCE (azoxystrobin solution in solvent after addition of water)” value in series [1] is “Crystallised”. Regarding Butylene carbonate, the logP octanol in series [2] was 1.21. Further, the “APPEARANCE (azoxystrobin solution in solvent after addition of water)” value in series [1] was found to be 2 layer.

For the compound Diethylene carbonate, the “APPEARANCE (azoxystrobin solution in solvent after addition of water)” value in series [3] is listed as 2 layer. Consider Hexylene glycol, for which, in series [4], the “APPEARANCE OF FORMULATION, Difenoconazole” value is “Crystallised”; the “APPEARANCE OF FORMULATION, Fludioxonil” value is listed as “Crystallised”; the “APPEARANCE OF FORMULATION, Mandipropamid” value is on record as “Crystallised”; the “APPEARANCE OF FORMULATION, Pinoxaden” value is “Crystallised”. In addition, the “appearance with each of the agrochemical active ingredients” value in series [4] is given as “crystallisation”. Also, in series [7], the miscibility with water result is “fully miscible”. Also, the “APPEARANCE (azoxystrobin solution in solvent after addition of water)” value in series [1] was “Crystallised”.
